Experimental data taken from PMC10974743, “Design, Synthesis, and Biological Evaluation of Novel Phenoxy Acetic Acid Derivatives as Selective COX-2 Inhibitors Coupled with Comprehensive Bio-Pharmacological Inquiry, Histopathological Profiling, and Toxicological Scrutiny” (Molecules, 2024).
“Also recorded” adds a separate entry of the source. Marks after values point to notes of the source that are not given here.

How the values were obtained:
TNF-α = TNF-α content of paw exudate by ELISA, carrageenan paw edema model; assay type: in vivo, Sprague Dawley rats; settings: vs carrageenan group
Protocol: (§1) ELISA assessment assays were conducted as cited (Supplementary Materials, page 53).
(§2) In-vivo anti-inflammatory activity […]
(§3) cervical dislocation. […] The percentage
(§4) Weight of the left paw] ×100.
(§5) Assessment of inflammatory biomarkers using ELISA […]
(§6) content, using enzyme -linked immunosorbent assay (ELISA). The ELISA kits were purchased from CLOUD -CLONE CORP (CCC, USA) (Cat# SEA133Ra) and MyBioSource company (British Columbia, Canada) (Cat# MBS730592) respectively, and the assays were performed following the manufacturer' s instructions. Additionally, the protein content of the exudates was determined using the Bradford method.

PGE2 = PGE2 content of paw exudate by ELISA, carrageenan paw edema model; assay type: in vivo, Sprague Dawley rats; settings: vs carrageenan group
Protocol: as §1, §2, §3, §4, §5, §6

[1] = system: nociceptive responses on hot plate; assay: Hot plate latency test (analgesic activity); assay type: in vivo, rats; settings: for Hot plate latency period: plate 50 °C, mean ± SD, n = 6
Protocol: The hot plate latency test was performed according to the following procedures (Supplementary Materials, page 54). […]
In summary, thirty rats
The normal control group received 1% CMC, while the remaining groups were administered their respective reference or test compounds. Each rat was gently positioned on a heated plate set at 50 ◦C. The latency period for nociceptive responses, such as paw licking or jumping off the hot plate, was recorded at 30-, 60-, 90-, and 120 minutes post-administration of the reference drugs, test […]

[2] = system: paw tissue, carrageenan paw edema model; assay: Histopathological examination of paws, inflammatory cell infiltration score; assay type: in vivo, rats; settings: for Paw histopathological finding: H&E staining, carrageenan paw edema; for Reduction in inflammatory cell infiltration score: vs carrageenan group, paw, 5 hours
Protocol: The histopathological assessments were performed according to the following procedures (Supplementary Materials, page 54). […]
Histopathological examination
Thirty-six rats were separated into six groups of six rats each for histological assessment […]
groupings consisted of a control group, a carrageenan group, two groups for the reference drugs […]
protocols that were utilized in the in-vivo anti-inflammatory activity test were used. After a duration of 5 hours, the animals were euthanized, and their left paws were amputated. The paws were preserved in 10% neutral buffered formalin, trimmed, washed, dehydrated in increasing concentrations of ethyl alcohol, clarified in xylene, and ultimately embedded in paraffin. They were then sliced into 4-6µ thick slices, stained with Hematoxylin and Eosin, and examined under a light microscope. A scoring system was used to evaluate the degree of inflammation, dividing it into six categories ranging from 0 indicating no inflammation to 5 indicating severe inflammation.
Each score corresponded to a certain level of inflammation: 0 for no inflammation, 1 for mild inflammation, 2 for mild to moderate inflammation, 3 for moderate inflammation, 4 for moderate to severe inflammation, and 5 for severe inflammation.

[3] = Assessment of liver and kidney function (serum ALT, AST, creatinine, urea); assay type: in vivo, rats; set-up: Urea: unit not given here; settings: mean ± SD; for ALT / AST / Urea / AST/ALT: n = 6; for Creatinine: n = 6, in mg/dL (unit assumed)
Protocol: These assessments were conducted following the manufacturer’s instructions (Supplementary Materials, page 55).
In-vivo anti-inflammatory activity
as §3, §4
Assessment of inflammatory biomarkers using ELISA

[4] = system: carrageenan-induced paw edema; assay: Carrageenan paw edema test (paw thickness, paw weight); settings: for Paw thickness difference: oral; for Paw thickness difference / Paw Weight Increase: mean ± SD, n = 6; for Percentage of inhibition of paw thickness / Inhibition of percentage of paw weight increase: vs carrageenan group; for Paw Weight Increase: right vs left paw, after 5 h
Protocol: The carrageenan paw edema test was conducted following established procedures as detailed (Supplementary Materials, page 53).
The carrageenan paw edema test was conducted following established procedures. In summary, seventy-two rats were randomly assigned to twelve groups, each comprising six rats.
These groups included normal controls, carrageenan controls (both receiving the vehicle; 1%
Acute inflammation was induced in the right hind paws of all rats one hour after oral administration of the respective compounds or vehicle. This was achieved by injecting a freshly prepared 0.1 mL carrageenan suspension (1% in normal saline) subplantarly into the right hind paw, except for the normal control group, which received a saline injection. Paw thickness was measured hourly (Ct) until the fifth hour (C5) post-carrageenan injection (C0). The hourly increase in paw thickness (paw thickness difference) was calculated by subtracting the initial measurement (C0) from the thickness at each hour (Ct), and the results were presented as the mean increase in paw thickness (mm). To evaluate anti-inflammatory effects, the percentage of inhibition for each standard and test compound was determined using the formula: percentage of inhibition (%) = [(Paw thickness difference of carrageenan group - Paw thickness difference of treated)/ Paw thickness difference of carrageenan group] × 100. […] The paws were then excised and weighed (both left and right). The percentage of weight increase between the left and right paws of each animal was calculated using the equation: Percentage of weight increase = [(Weight of the right paw - Weight of the left paw) / Weight of the left paw] ×100.

gastric mucosa = assay: Evaluation of ulcerogenic effects (macroscopic scores and gastric histopathology); settings: for Gastric mucosa histopathological finding: H&E staining; for Ulcer Number Score / Ulcer Severity Score: mean ± SD; for Ulcer Number Score: n = 6; for Ulcer Severity Score: n = 6, scale 0 to 5
Protocol: The assessment of ulcerogenic effects was conducted following established procedures [42, 57]
Following the experimental period, the animals were euthanized using pentobarbital sodium (100 mg/kg), and blood was collected via jugular vein exsanguination for later evaluation of liver and kidney function, and subsequently sacrificed by cervical dislocation. […] Following this, the animals' stomachs were removed, inflated, and opened along the greater curvature to evaluate ulcerogenic effects.
B: Ulcer lesion severity scoring system
2.5 More than 10 small ulcers
3 1 marked ulcer plus 0 to 4 small ulcers
3.5 1 marked ulcer plus 5 or more small ulcers
4 2 marked ulcers plus 0 to 4 small ulcers
4.5 2 marked ulcers plus 5 or more small ulcers
5 3 or more marked ulcers
The statistical analysis of the data was conducted using GraphPad Prism 9.5.1 Demo
(GraphPad Software, San Diego, CA). One -way analysis of variance (ANOVA) was utilized to
evaluate differences among the various groups, except for paw edema volume, which un derwent
analysis using two -way ANOVA. Post -hoc analysis was performed using Tukey's multiple
significance set at P < 0.05

ovine COX-1 = target: T1, ovine COX-1 (Ovis aries, UniProt P05979); assay: In vitro COX-1 inhibition assay (Cayman colorimetric COX inhibitor screening kit)
T1 sequence (P05979 25-600): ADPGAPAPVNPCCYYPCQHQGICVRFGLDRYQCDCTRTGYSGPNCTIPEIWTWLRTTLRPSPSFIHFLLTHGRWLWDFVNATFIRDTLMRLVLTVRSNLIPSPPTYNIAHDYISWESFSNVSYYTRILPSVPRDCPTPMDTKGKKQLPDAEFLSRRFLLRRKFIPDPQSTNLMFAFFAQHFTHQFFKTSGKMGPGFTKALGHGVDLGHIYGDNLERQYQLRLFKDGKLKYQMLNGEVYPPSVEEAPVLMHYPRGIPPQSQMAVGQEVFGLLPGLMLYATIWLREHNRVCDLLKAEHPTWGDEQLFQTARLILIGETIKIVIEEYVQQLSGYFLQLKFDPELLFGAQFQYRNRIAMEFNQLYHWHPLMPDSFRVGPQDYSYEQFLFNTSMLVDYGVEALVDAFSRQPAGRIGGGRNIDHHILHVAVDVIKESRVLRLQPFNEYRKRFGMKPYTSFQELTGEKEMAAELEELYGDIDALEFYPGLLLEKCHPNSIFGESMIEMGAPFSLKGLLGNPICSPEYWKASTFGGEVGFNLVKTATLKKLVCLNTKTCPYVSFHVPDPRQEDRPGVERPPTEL
Protocol: The in vitro enzyme assays were performed at the Biochemistry Department, Cairo
General Hospital, Egypt. Cayman® colorimetric COX (ovine) inhibitor screening assay kit (Item
enzymes in presence of all newly compounds. Generally, this kit is dependent on the reductive
reaction of COX. A specific antibody binds to PGH2 produced by COX and is further quantified
by the ELISA technique as previously reported. After that, the selectivity index (SI) was calculated
as the following equation:
𝐒𝐞𝐥𝐞𝐜𝐭𝐢𝐯𝐢𝐭𝐲 𝐢𝐧𝐝𝐞𝐱 (𝐒𝐈) = 𝐈𝐂₅₀𝐨𝐟 𝐂𝐎𝐗 − 𝟏

human COX-2 = target: T2, human COX-2 (Homo sapiens, UniProt P35354); assay: In vitro COX-2 inhibition assay (Cayman colorimetric COX inhibitor screening kit); settings: for IC50: COX-2 IC50, mean ± SEM, n = 3
T2 sequence (P35354 18-604): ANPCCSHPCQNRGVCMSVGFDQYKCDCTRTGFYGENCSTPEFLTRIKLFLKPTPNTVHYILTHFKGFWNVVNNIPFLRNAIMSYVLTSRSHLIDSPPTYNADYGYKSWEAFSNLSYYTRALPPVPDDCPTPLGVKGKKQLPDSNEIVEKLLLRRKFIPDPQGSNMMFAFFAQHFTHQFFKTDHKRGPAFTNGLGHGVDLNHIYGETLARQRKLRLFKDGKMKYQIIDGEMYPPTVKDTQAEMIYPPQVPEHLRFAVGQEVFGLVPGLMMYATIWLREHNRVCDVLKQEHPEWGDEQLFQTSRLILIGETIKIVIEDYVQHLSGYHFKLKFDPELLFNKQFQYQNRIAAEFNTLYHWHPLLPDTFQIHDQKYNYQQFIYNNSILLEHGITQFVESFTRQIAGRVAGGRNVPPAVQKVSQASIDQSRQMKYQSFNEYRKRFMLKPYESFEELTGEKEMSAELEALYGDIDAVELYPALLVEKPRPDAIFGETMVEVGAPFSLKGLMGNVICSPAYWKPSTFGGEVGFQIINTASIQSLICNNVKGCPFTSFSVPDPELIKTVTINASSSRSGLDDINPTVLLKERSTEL

| Structure (SMILES) | Reduction of TNF-α exudate content (TNF-α) [%] | Reduction of PGE2 exudate content (PGE2) [%] | Hot plate latency period ([1]; 30 min post-administration) | Hot plate latency period ([1]; 60 min post-administration) | Hot plate latency period ([1]; 90 min post-administration) | Increase in latency period ([1]; 120 min mark) [%] | Hot plate latency period ([1]; 120 min post-administration) | Paw histopathological finding [2] | ALT [3] [IU/L] | AST [3] [IU/L] | Urea [3] | Creatinine [3] | Paw thickness difference ([4]; 1st h after carrageenan) [mm] | Percentage of inhibition of paw thickness ([4]; 1st h) [%] | Paw thickness difference ([4]; 2nd h after carrageenan) [mm] | Percentage of inhibition of paw thickness ([4]; 2nd h) [%] | Paw thickness difference ([4]; 3rd h after carrageenan) [mm] | Percentage of inhibition of paw thickness ([4]; 3rd h) [%] | Paw thickness difference ([4]; 4th h after carrageenan) [mm] | Percentage of inhibition of paw thickness ([4]; 4th h) [%] | further results |
| --- | --- | --- | --- | --- | --- | --- | --- | --- | --- | --- | --- | --- | --- | --- | --- | --- | --- | --- | --- | --- | --- |
| Cc1ccc(-c2cc(C(F)(F)F)nn2-c2ccc(S(N)(=O)=O)cc2)cc1 [Celecoxib, celecoxib, reference compound] | 63.52 | 60.16 | 8.39 ± 0.22 ^a | 9.95 ± 0.23 ^a | 11.63 ± 0.60 ^a | 46.70 | 13.88 ± 0.41 ^a | dermal infiltration by high number of inflammatory cells mainly neutrophils and lymphocytes; also recorded: significant dermal infiltration by a large quantity of inflammatory cells | 92.94 ± 5.00 | 101.23 ± 10.04 | 26.28 ± 3.11 | 0.73 ± 0.03 | 1.4 ± 0.38 | 29.31 | 2.36 ± 0.51 | 28.34 | 2.83 ± 0.43 | 33 | 3.01 ± 0.57 | 40.39 | Paw thickness difference ([4]; 5th h after carrageenan): 3.10 ± 0.23 mm; Percentage of inhibition of paw thickness ([4]; 5th h): 41.65%; Paw Weight Increase [4]: 29.95 ± 2.20 ^ab %; Gastric mucosa histopathological finding (gastric mucosa): ulcer formation with eroded gastric mucosa; also recorded: developed ulcers with degraded gastric mucosa; Ulcer Number Score (gastric mucosa): 1.00 ± 0.63; Ulcer Severity Score (gastric mucosa): 0.75 ± 0.52 |
| O=C(O)COc1ccc(Br)cc1C=NNC(=O)c1ccc(Cl)cc1 [Compound 5f, 2-(4-Bromo-2-((2-(4-chlorobenzoyl)hydrazineylidene)methyl)phenoxy)acetic acid] | 61.04 | 60.58 | 8.99 ± 0.38 ^abc | 10.59 ± 0.3 ^abc | 12.48 ± 0.65 ^ab | 49.50 | 14.15 ± 0.38 ^a | infiltration by a few numbers of inflammatory cells mainly eosinophils and lymphocytes; also recorded: dermal edema with limited infiltration of inflammatory cells | 92.76 ± 3.83 | 93.69 ± 5.26 | 26.37 ± 2.48 | 0.67 ± 0.04 | 0.83 ± 0.15 | 58.11 | 1.65 ± 0.29 | 49.85 | 2.32 ± 0.17 | 45.05 | 2.68 ± 0.12 | 46.9 | Increase in latency period ([1]; 30 min mark): 39.43%; Reduction in inflammatory cell infiltration score [2]: 70.37%; AST/ALT [3]: 1.01 ± 0.08; Paw thickness difference ([4]; 5th h after carrageenan): 2.84 ± 0.13 mm; Paw Weight Increase [4]: 29.85 ± 3.88 ^ab %; Inhibition of percentage of paw weight increase [4]: 68.26%; IC50 (ovine COX-1): 8000 ± 200 nM; SI (COX-2 selectivity index) (human COX-2; COX-1 (IC50)/COX-2 (IC50)): 133.34; IC50 (human COX-2): 60 ± 10 nM; Gastric mucosa histopathological finding (gastric mucosa): normal histological structure of gastric mucosa; also recorded: normal histological structure of the stomach mucosa; Ulcer Number Score (gastric mucosa): 0.50 ± 0.55 ^d; Ulcer Severity Score (gastric mucosa): 0.33 ± 0.41 ^d |
| O=C(O)COc1ccc(Br)cc1C=NNC(=O)Cc1ccccc1 [Compound 7b, 2-(4-Bromo-2-((2-(2-phenylacetyl)hydrazineylidene)methyl)phenoxy)acetic acid] | 64.88 | 57.07 | 8.88 ± 0.29 ^ac | 10.35 ± 0.35 ^ac | 12.09 ± 0.29 ^ac | 44.90 | 13.71 ± 0.31 ^a | dermal infiltration by a moderate number of mononuclear inflammatory cells; also recorded: moderate infiltration of mononuclear inflammatory cells in the dermis | 89.13 ± 8.53 | 97.59 ± 6.19 | 27.16 ± 1.53 | 0.68 ± 0.05 | 0.65 ± 0.16 | 67.23 | 1.08 ± 0.21 | 67.11 | 1.64 ± 0.13 | 61.23 | 1.90 ± 0.19 | 62.42 | Increase in latency period ([1]; 30 min mark): 37.67%; Reduction in inflammatory cell infiltration score [2]: 62.96%; AST/ALT [3]: 1.10 ± 0.12; Paw thickness difference ([4]; 5th h after carrageenan): 1.95 ± 0.19 mm; Paw Weight Increase [4]: 33.07 ± 1.88 ^ab %; Inhibition of percentage of paw weight increase [4]: 64.84%; IC50 (ovine COX-1): 5930 ± 120 nM; IC50 (human COX-2): 60 ± 10 nM; Gastric mucosa histopathological finding (gastric mucosa): infiltration of gastric mucosa by a few numbers of mononuclear inflammatory cells; Ulcer Number Score (gastric mucosa): 0.67 ± 0.52; Ulcer Severity Score (gastric mucosa): 0.42 ± 0.38 |
